Like-named read-outs stand apart in the source and are kept apart here.
Tests used:
[1] = test system: Zymoseptoria tritici; experiment: Leaf Blotch of Wheat (SEPTTR) fungicidal activity; type: in vivo; conditions: for pest or weed control at 121.5 g/ha: Low Volume (121.5 g/H); for pest or weed control at 100 µg/mL: High Volume (100 ppm)
Protocol: Technical grades of materials were dissolved in acetone, which were then mixed with nine volumes of H2O containing 110 ppm Triton X-100. The fungicide solutions were applied onto wheat seedlings using an automated booth sprayer to run-off. All sprayed plants were allowed to air dry prior to further handling. All fungicides were evaluated using the aforementioned method for their activity vs. all target diseases, unless stated otherwise. Wheat leaf blotch and brown rust activity were also evaluated using track spray applications, in which case the fungicides were formulated as EC formulations, containing 0.1% Trycol 5941 in the spray solutions. Wheat plants (variety Yuma) were grown from seed in a greenhouse in 50% mineral soil/50% soil-less Metro mix until the first leaf was fully emerged, with 7-10 seedlings per pot. These plants were inoculated with an aqueous spore suspension of Zymoseptoria tritici either prior to or after fungicide treatments. After inoculation the plants were kept in 100% relative humidity (one day in a dark dew chamber followed by two to three days in a lighted dew chamber at 20° C.) to permit spores to germinate and infect the leaf. The plants were then transferred to a greenhouse set at 20° C. for disease to develop. When disease symptoms were fully expressed on the 1st leaves of untreated plants, infection levels were assessed on a scale of 0 to 100 percent disease severity. Percent disease control was calculated using the ratio of disease severity on treated plants relative to untreated plants.

[2] = test system: Puccinia triticina; experiment: Wheat Brown Rust (PUCCRT) fungicidal activity; type: in vivo; conditions: for pest or weed control at 121.5 g/ha: Low Volume (121.5 g/H); for pest or weed control at 100 µg/mL: High Volume (100 ppm)
Protocol: Technical grades of materials were dissolved in acetone, which were then mixed with nine volumes of H2O containing 110 ppm Triton X-100. The fungicide solutions were applied onto wheat seedlings using an automated booth sprayer to run-off. All sprayed plants were allowed to air dry prior to further handling. All fungicides were evaluated using the aforementioned method for their activity vs. all target diseases, unless stated otherwise. Wheat leaf blotch and brown rust activity were also evaluated using track spray applications, in which case the fungicides were formulated as EC formulations, containing 0.1% Trycol 5941 in the spray solutions. Wheat plants (variety Yuma) were grown from seed in a greenhouse in 50% mineral soil/50% soil-less Metro mix until the first leaf was fully emerged, with 7-10 seedlings per pot. These plants were inoculated with an aqueous spore suspension of Puccinia triticina either prior to or after fungicide treatments. After inoculation the plants were kept in a dark dew room at 22° C. with 100% relative humidity overnight to permit spores to germinate and infect the leaf. The plants were then transferred to a greenhouse set at 24° C. for disease to develop. Fungicide formulation, application and disease assessment followed the procedures as described in the Example A.

[3] = 24 h, 1 Day Protectant, read-out: SEPTTR 1DP disease control
[4] = 72 h, 3 Day Curative, read-out: SEPTTR 3DC disease control
[5] = 24 h, 1 Day Protectant, read-out: PUCCRT 1DP disease control
[6] = 72 h, 3 Day Curative, read-out: PUCCRT 3DC disease control

Row | Structure (SMILES) | pest or weed control at 121.5 g/ha [1, 3] | pest or weed control at 121.5 g/ha [1, 4] | pest or weed control at 121.5 g/ha [2, 5] | pest or weed control at 121.5 g/ha [2, 6] | pest or weed control at 100 µg/mL [1, 3] | pest or weed control at 100 µg/mL [1, 4] | pest or weed control at 100 µg/mL [2, 5] | pest or weed control at 100 µg/mL [2, 6]
1 | COc1ccc(C[C@H]2CCOC[C@H](NC(=O)c3nccc(OC)c3OC(C)=O)C(=O)O[C@@H](C)[C@@H]2Oc2ccccc2)cc1 [Compound 65] | > 80% | < 80% | > 80% | < 80% | – | – | – | –
2 | COc1ccc(C[C@H]2CCOC[C@H](NC(=O)c3nccc(OC)c3OCOC(C)=O)C(=O)O[C@@H](C)[C@@H]2Oc2ccccc2)cc1 [Compound 66] | > 80% | > 80% | > 80% | < 80% | – | – | – | –
3 | COc1ccc(C[C@H]2CCOC[C@H](NC(=O)c3nccc(OC)c3OCOC(=O)C(C)C)C(=O)O[C@@H](C)[C@@H]2Oc2ccccc2)cc1 [Compound 67, ((4-methoxy-2-(((3S,8S,9R,10S)-8-(4-methoxybenzyl)-10-methyl-2-oxo-9-phenoxy-1,5-dioxecan-3-yl)carbamoyl)pyridin-3-yl)oxy)methyl isobutyrate] | > 80% | < 80% | > 80% | < 80% | – | – | – | –
4 | COc1ccc(C[C@H]2CCOC[C@H](NC(=O)c3nccc(OC)c3OC(=O)C(C)C)C(=O)O[C@@H](C)[C@@H]2Oc2ccccc2)cc1 [Compound 68] | < 80% | < 80% | > 80% | – | – | – | – | –
5 | CC[C@H]1CCOC[C@H](NC(=O)c2nccc(OC)c2OCOC(C)=O)C(=O)O[C@@H](C)[C@@H]1Oc1ccccc1 [Compound 69] | > 80% | > 80% | > 80% | > 80% | – | – | – | –
6 | CC[C@H]1CCOC[C@H](NC(=O)c2nccc(OC)c2OCOC(C)=O)C(=O)O[C@@H](C)[C@@H]1OCC(C)C [Compound 70] | > 80% | < 80% | > 80% | > 80% | – | – | – | –
7 | COc1ccnc(C(=O)N[C@H]2COCC[C@H](Cc3ccc(F)cc3)[C@@H](Oc3ccccc3)[C@H](C)OC2=O)c1OC(C)=O [Compound 71] | > 80% | > 80% | > 80% | > 80% | – | – | – | –
8 | COc1ccnc(C(=O)N[C@H]2COCC[C@H](Cc3ccc(F)cc3)[C@@H](Oc3ccccc3)[C@H](C)OC2=O)c1OCOC(C)=O [Compound 72] | > 80% | > 80% | > 80% | > 80% | – | – | – | –
9 | COc1ccnc(C(=O)N[C@H]2COCC[C@H](Cc3ccc(F)cc3)[C@@H](Oc3ccccc3)[C@H](C)OC2=O)c1OCOC(=O)C(C)C [Compound 73] | > 80% | > 80% | > 80% | > 80% | – | – | – | –
10 | COc1ccnc(C(=O)N[C@H]2COCC[C@H](Cc3ccc(F)cc3)[C@@H](OCC3CC3)[C@H](C)OC2=O)c1OCOC(C)=O [Compound 74] | > 80% | < 80% | > 80% | > 80% | – | – | – | –
11 | COc1ccnc(C(=O)N[C@H]2COCC[C@H](Cc3ccc(F)cc3)[C@@H](OC(=O)C(C)C)[C@H](C)OC2=O)c1OC(C)=O [Compound 75] | > 80% | < 80% | > 80% | > 80% | – | – | – | –
12 | COc1ccnc(C(=O)N[C@H]2COCC[C@H](Cc3ccc(F)cc3)[C@@H](OC(=O)C(C)C)[C@H](C)OC2=O)c1OCOC(C)=O [Compound 76] | > 80% | > 80% | > 80% | > 80% | – | – | – | –
13 | COc1ccnc(C(=O)N[C@H]2COCC[C@H](Cc3ccc(F)cc3)[C@@H](OCC3CC3)[C@H](C)OC2=O)c1OC(C)=O [Compound 77] | > 80% | < 80% | > 80% | > 80% | – | – | – | –
14 | CCOCC(=O)OCOc1c(OC)ccnc1C(=O)N[C@H]1COCC[C@H](Cc2ccc(F)cc2)[C@@H](OCC2CC2)[C@H](C)OC1=O [Compound 78] | > 80% | < 80% | > 80% | > 80% | – | – | – | –
15 | CC[C@H]1CCOC[C@H](NC(=O)c2nccc(OC)c2OCOC(C)=O)C(=O)O[C@@H](C)[C@@H]1OC(=O)C1CC1 [Compound 79] | > 80% | – | > 80% | > 80% | – | – | – | –
16 | CC[C@H]1CCOC[C@H](NC(=O)c2nccc(OC)c2OC(C)=O)C(=O)O[C@@H](C)[C@@H]1OC(=O)c1ccccc1 [Compound 80] | > 80% | < 80% | > 80% | > 80% | – | – | – | –
17 | COc1ccnc(C(=O)N[C@H]2COCCC[C@@H](CCC(C)C)[C@H](C)OC2=O)c1O [Compound 112] | – | – | – | – | < 80% | < 80% | < 80% | < 80%

From patent publication US20180002320A1, “USE OF MACROCYCLIC PICOLINAMIDES AS FUNGICIDES” (DOW AGROSCIENCES LLC, priority 2014, published 2018)
